This experiment concerns the target galectin-3 carbohydrate recognition domain (Gal3C) (Homo sapiens, UniProt P17931). The experiment is described as follows: X-ray crystal structure at […] Å. The format is binding.

Bounds are passed on as bounds.

galectin-3 carbohydrate recognition domain (Gal3C), sequence (P17931 113-250): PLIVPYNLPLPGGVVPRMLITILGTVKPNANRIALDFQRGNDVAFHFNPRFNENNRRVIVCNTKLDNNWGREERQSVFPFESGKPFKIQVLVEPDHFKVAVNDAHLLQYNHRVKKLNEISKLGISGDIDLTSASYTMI

For the molecule `OCC(O)CO` [glycerol], the Kd was above 100 mM.

By Kd is commonly meant the constant that tells how readily two partners part at equilibrium. Lower therefore signals higher affinity.
